Test system: muscle protein kinetics
Assay: Protein kinetics in muscle of rabbits infused with amino acid mixtures (surgical stress model)
Assay type: in vivo, New Zealand white rabbits
Details: rabbit, infusion, means ± SEM
Description: To investigate the optimal mixture of free amino acids for stimulating net muscle protein synthesis a series of studies in New Zealand white rabbits weighing about 4.5 kg was performed. Net muscle protein balance was quantified by a technique analogous to the one used for human studies as described in Biolo et al, J Parent Enteral Nutr 16:305-315, 1992, which is hereby incorporated by reference, except that leg blood flow was measured by flow probe. This animal model is designed to represent a stress model induced by the surgical procedures needed to collect the samples and therefore is considered to be a good model for a seriously-ill […] patient. Different amino acid mixtures were infused into the rabbits, and the response of muscle quantified.
The groups were as follows:
AA group: A balanced AA solution (10% TRAVASOL®) containing all amino acids (27.3 umol·kg^−1·min^−1)
EAA group: Only essential amino acids (27.3 umol·kg^−1·min^−1)
Leu (25%)+AA group: Leucine was added to the balanced AA solution to account for 25% of total nitrogen and infused at the same total nitrogen group as others (27.3 umol·kg^−1·min^−1)
Leu (35%)+AA group: Same as above, except Leu comprised 35% of total
Leu only: Leucine only at 8.3 umol·kg·min

## CC(C)C[C@H](N)C(=O)O [Leu alone, Leucine]
  Protein kinetics in muscle: Breakdown: 9.2 ± 0.5 µmol/kg/min
*p<0.05 vs control
  Protein kinetics in muscle: Net balance: -2.6 ± 0.3 µmol/kg/min
  Protein kinetics in muscle: Synthesis: 6.6 ± 0.7 µmol/kg/min

From US8703725B2, “Nutritional compositions” (NESTEC S.A., priority 2002, dated 2014)
